According to publication PMC5218480 (PLoS ONE, 2017):

Test system: MV-4-11 cells
Assay: Gene expression microarray analysis (Affymetrix PrimeView) and GSEA
Type: cell-based, human
Parameters: RFU PODN (11730768_x_at) / Fold change /veh PODN (11730768_x_at) / RFU LINC00158 (11744669_a_at) / Fold change /veh LINC00158 (11744669_a_at) / RFU DUSP10 (11751237_a_at) / Fold change /veh DUSP10 (11751237_a_at) / RFU ID3 (11757404_x_at) / Fold change /veh ID3 (11757404_x_at) / RFU PLEKHG5 (11737974_s_at) / Fold change /veh PLEKHG5 (11737974_s_at) / RFU LRRC4B (11730491_at) / Fold change /veh LRRC4B (11730491_at) / RFU GIMAP4 (11747438_a_at) / Fold change /veh GIMAP4 (11747438_a_at) / RFU KRT8 (11758183_x_at) / Fold change /veh KRT8 (11758183_x_at) / RFU CNN1 (11734310_a_at) / Fold change /veh CNN1 (11734310_a_at) / RFU VPS37D (11726825_at) / Fold change /veh VPS37D (11726825_at) / RFU C10orf10 (11716522_x_at) / Fold change /veh C10orf10 (11716522_x_at) / RFU KIR2DL2 /// KIR2DL4 /// KIR2DL5A /// KIR2DL5B /// KIR2DS1 /// KIR2DS2 /// KIR2DS3 /// KIR2DS4 /// KIR3DL3 /// KIR3DL3 /// KIR3DS1 (11738374_at) / Fold change /veh KIR2DL2 /// KIR2DL4 /// KIR2DL5A /// KIR2DL5B /// KIR2DS1 /// KIR2DS2 /// KIR2DS3 /// KIR2DS4 /// KIR3DL3 /// KIR3DL3 /// KIR3DS1 (11738374_at) / RFU C1QL1 (11718748_at) / Fold change /veh C1QL1 (11718748_at) / RFU TMPRSS4 (11747572_a_at) / Fold change /veh TMPRSS4 (11747572_a_at) / RFU HAMP (11756126_x_at) / Fold change /veh HAMP (11756126_x_at) / RFU RNFT2 (11725882_a_at) / Fold change /veh RNFT2 (11725882_a_at) / RFU NR4A2 (11747474_a_at) / Fold change /veh NR4A2 (11747474_a_at) / RFU ABCC12 (11746883_a_at) / Fold change /veh ABCC12 (11746883_a_at) / RFU TMEM136 (11760407_x_at) / Fold change /veh TMEM136 (11760407_x_at) / RFU CLDN22 /// WWC2 (11732394_at) / Fold change /veh CLDN22 /// WWC2 (11732394_at) / RFU HLA-DPB1 (11760878_x_at) / Fold change /veh HLA-DPB1 (11760878_x_at) / RFU SPINT1 (11716480_a_at) / Fold change /veh SPINT1 (11716480_a_at) / RFU GAP43 (11754022_s_at) / Fold change /veh GAP43 (11754022_s_at) / RFU A4GNT (11735810_at) / Fold change /veh A4GNT (11735810_at) / RFU PRB3 (11715151_x_at) / Fold change /veh PRB3 (11715151_x_at) / RFU TUBB4B (11761932_at) / Fold change /veh TUBB4B (11761932_at) / RFU CAPN14 (11732068_a_at) / Fold change /veh CAPN14 (11732068_a_at) / RFU TMCC2 (11721928_a_at) / Fold change /veh TMCC2 (11721928_a_at) / RFU IRGQ (11745062_a_at) / Fold change /veh IRGQ (11745062_a_at) / RFU FAM174B (11720279_a_at) / Fold change /veh FAM174B (11720279_a_at) / RFU TMPRSS4 (11748680_a_at) / Fold change /veh TMPRSS4 (11748680_a_at) / RFU FAM212B (11763350_a_at) / Fold change /veh FAM212B (11763350_a_at) / RFU PLEKHG5 (11743358_a_at) / Fold change /veh PLEKHG5 (11743358_a_at) / RFU ZSCAN30 (11745921_a_at) / Fold change /veh ZSCAN30 (11745921_a_at) / RFU CMKLR1 (11741424_a_at) / Fold change /veh CMKLR1 (11741424_a_at) / RFU LOC101060620 /// MAPK8IP1 (11723275_at) / Fold change /veh LOC101060620 /// MAPK8IP1 (11723275_at) / RFU SPTSSB (11747773_x_at) / Fold change /veh SPTSSB (11747773_x_at) / RFU PRSS12 (11739890_at) / Fold change /veh PRSS12 (11739890_at) / RFU BIN1 (11741810_x_at) / Fold change /veh BIN1 (11741810_x_at) / RFU WNT11 (11732464_a_at) / Fold change /veh WNT11 (11732464_a_at) / RFU C10orf10 (11716521_a_at) / Fold change /veh C10orf10 (11716521_a_at) / RFU C5orf56 (11738089_at) / Fold change /veh C5orf56 (11738089_at) / RFU CYB561 (11721691_x_at) / Fold change /veh CYB561 (11721691_x_at) / RFU ANKRD19P (11752326_a_at) / Fold change /veh ANKRD19P (11752326_a_at) / RFU OR2T12 /// OR2T33 /// OR2T8 (11738714_s_at) / Fold change /veh OR2T12 /// OR2T33 /// OR2T8 (11738714_s_at) / RFU VCAN (11748164_a_at) / Fold change /veh VCAN (11748164_a_at) / RFU JSRP1 (11732532_at) / Fold change /veh JSRP1 (11732532_at) / RFU KRTAP10-11 (11738290_x_at) / Fold change /veh KRTAP10-11 (11738290_x_at) / RFU MYO3A (11730013_a_at) / Fold change /veh MYO3A (11730013_a_at) / RFU EBF3 (11725865_a_at) / Fold change /veh EBF3 (11725865_a_at) / RFU CAMK2N1 (11719241_x_at) / Fold change /veh CAMK2N1 (11719241_x_at) / RFU C5orf56 (11738088_a_at) / Fold change /veh C5orf56 (11738088_a_at) / RFU OLFML3 (11715873_a_at) / Fold change /veh OLFML3 (11715873_a_at) / RFU LOC100653217 /// NTM (11731650_a_at) / Fold change /veh LOC100653217 /// NTM (11731650_a_at) / RFU MAPK11 (11762145_a_at) / Fold change /veh MAPK11 (11762145_a_at) / RFU FIZ1 (11724087_x_at) / Fold change /veh FIZ1 (11724087_x_at) / RFU OASL (11726364_x_at) / Fold change /veh OASL (11726364_x_at) / RFU SOX15 (11748057_x_at) / Fold change /veh SOX15 (11748057_x_at) / RFU CD79A (11719716_a_at) / Fold change /veh CD79A (11719716_a_at) / RFU HIST1H1D (11736915_at) / Fold change /veh HIST1H1D (11736915_at) / RFU CASKIN2 (11723855_a_at) / Fold change /veh CASKIN2 (11723855_a_at) / RFU LOC730098 (11760151_x_at) / Fold change /veh LOC730098 (11760151_x_at) / RFU OR4N2 (11742367_at) / Fold change /veh OR4N2 (11742367_at) / RFU PRRT2 (11749266_a_at) / Fold change /veh PRRT2 (11749266_a_at) / RFU SNX32 (11753110_a_at) / Fold change /veh SNX32 (11753110_a_at) / RFU CDHR5 (11726645_a_at) / Fold change /veh CDHR5 (11726645_a_at) / RFU RCAN1 (11760418_a_at) / Fold change /veh RCAN1 (11760418_a_at) / RFU FAM167A (11723789_a_at) / Fold change /veh FAM167A (11723789_a_at) / RFU FAM26E (11764081_at) / Fold change /veh FAM26E (11764081_at) / RFU ISYNA1 (11749810_s_at) / Fold change /veh ISYNA1 (11749810_s_at) / RFU ACY1 (11761880_at) / Fold change /veh ACY1 (11761880_at) / RFU 11764098_at / Fold change /veh 11764098_at / RFU SAMD14 (11745864_x_at) / Fold change /veh SAMD14 (11745864_x_at) / RFU NPB (11741838_a_at) / Fold change /veh NPB (11741838_a_at) / RFU TMPRSS6 (11731388_a_at) / Fold change /veh TMPRSS6 (11731388_a_at) / RFU KRTAP10-2 (11738614_at) / Fold change /veh KRTAP10-2 (11738614_at) / RFU ARHGAP8 /// PRR5-ARHGAP8 (11727945_x_at) / Fold change /veh ARHGAP8 /// PRR5-ARHGAP8 (11727945_x_at) / RFU KRTAP5-7 /// NADSYN1 (11734609_at) / Fold change /veh KRTAP5-7 /// NADSYN1 (11734609_at) / RFU RASL12 (11751679_a_at) / Fold change /veh RASL12 (11751679_a_at) / RFU CDKN2B (11736163_a_at) / Fold change /veh CDKN2B (11736163_a_at) / RFU PRF1 (11729649_at) / Fold change /veh PRF1 (11729649_at) / RFU, ZNF638 /// ZNF638-IT1 / Fold change vs veh, ZNF638 /// ZNF638-IT1 / RFU, PANK3 / Fold change vs veh, PANK3 / RFU, SH3YL1 / Fold change vs veh, SH3YL1 / RFU, ZEB2 / Fold change vs veh, ZEB2 / RFU, NRIP1 / Fold change vs veh, NRIP1 / RFU, PTTG1IP / Fold change vs veh, PTTG1IP / RFU, CAPN2 / Fold change vs veh, CAPN2 / RFU, MED14 / Fold change vs veh, MED14 / RFU, SNORA58 / Fold change vs veh, SNORA58 / RFU, C1orf63 / Fold change vs veh, C1orf63 / RFU, LRRFIP1 / Fold change vs veh, LRRFIP1 / RFU, NDUFAF7 / Fold change vs veh, NDUFAF7 / RFU, SLC12A2 / Fold change vs veh, SLC12A2 / RFU, IBTK / Fold change vs veh, IBTK / RFU, ESF1 / Fold change vs veh, ESF1 / Fold change vs veh, TMEM50B / RFU, TAOK1 / Fold change vs veh, TAOK1 / RFU, ACBD3 / Fold change vs veh, ACBD3 / RFU, TMA16 / Fold change vs veh, TMA16 / RFU, RWDD3 / Fold change vs veh, RWDD3 / RFU, BCAT1 / Fold change vs veh, BCAT1 / RFU, EDEM3 / Fold change vs veh, EDEM3 / RFU, TMEM33 / Fold change vs veh, TMEM33 / RFU, WDR75 / Fold change vs veh, WDR75 / RFU, AHCTF1 / Fold change vs veh, AHCTF1 / RFU, TFRC / Fold change vs veh, TFRC / RFU, ZDHHC17 / Fold change vs veh, ZDHHC17 / RFU, NOM1 / Fold change vs veh, NOM1 / RFU, ARL8B / Fold change vs veh, ARL8B / RFU, ZBTB11 / Fold change vs veh, ZBTB11 / RFU, TAMM41 / Fold change vs veh, TAMM41 / RFU, KIAA1704 /// LOC100996395 / Fold change vs veh, KIAA1704 /// LOC100996395 / RFU, ING1 / Fold change vs veh, ING1 / RFU, TRMT61B / Fold change vs veh, TRMT61B / RFU, FUBP3 / Fold change vs veh, FUBP3 / RFU, TP53 / Fold change vs veh, TP53 / RFU, TNKS2 / Fold change vs veh, TNKS2 / RFU, ZFP14 / Fold change vs veh, ZFP14 / RFU, ACTR2 / Fold change vs veh, ACTR2 / RFU, PPP3R1 / Fold change vs veh, PPP3R1 / RFU, PIK3R1 / Fold change vs veh, PIK3R1 / RFU, HNRNPA1 / Fold change vs veh, HNRNPA1 / RFU, RNF170 / Fold change vs veh, RNF170 / RFU, ZNF28 / Fold change vs veh, ZNF28 / RFU, RNGTT / Fold change vs veh, RNGTT / RFU, OGT / Fold change vs veh, OGT / RFU, BRD1 / Fold change vs veh, BRD1 / RFU, MARS / Fold change vs veh, MARS / RFU, ZNF655 / Fold change vs veh, ZNF655 / RFU, FAHD1 / Fold change vs veh, FAHD1 / RFU, BDP1 / Fold change vs veh, BDP1 / RFU, LRRCC1 / Fold change vs veh, LRRCC1 / RFU, ARID1A / Fold change vs veh, ARID1A / RFU, ZNF146 / Fold change vs veh, ZNF146 / RFU, ZNF330 / Fold change vs veh, ZNF330 / RFU, GPN3 / Fold change vs veh, GPN3 / RFU, C9orf123 / Fold change vs veh, C9orf123 / RFU, N4BP2L2 / Fold change vs veh, N4BP2L2 / RFU, ARFIP1 / Fold change vs veh, ARFIP1 / RFU, FAM179B / Fold change vs veh, FAM179B / RFU, BCL10 / Fold change vs veh, BCL10 / RFU, UHRF1BP1L / Fold change vs veh, UHRF1BP1L / RFU, BET1 / Fold change vs veh, BET1 / RFU, CNOT2 / Fold change vs veh, CNOT2 / RFU, ZNF268 / Fold change vs veh, ZNF268 / Fold change vs veh, ZNF507 / RFU, DGCR2 / Fold change vs veh, DGCR2 / RFU, WDSUB1 / Fold change vs veh, WDSUB1 / Fold change vs veh, HSP90B1 /// MIR3652 / RFU, ADSS / Fold change vs veh, ADSS / RFU, GK / Fold change vs veh, GK / RFU, ZNF148 / Fold change vs veh, ZNF148 / RFU, TAF9 / Fold change vs veh, TAF9 / RFU, SLC1A5 / Fold change vs veh, SLC1A5 / RFU, SLMO2 / Fold change vs veh, SLMO2 / RFU, ABCC4 / Fold change vs veh, ABCC4 / RFU, LOC101060439 /// RAP1B / Fold change vs veh, LOC101060439 /// RAP1B / RFU, RFX7 / Fold change vs veh, RFX7 / RFU, GTPBP10 / Fold change vs veh, GTPBP10 / RFU, CNEP1R1 / Fold change vs veh, CNEP1R1 / RFU, BIVM-ERCC5 /// ERCC5 / Fold change vs veh, BIVM-ERCC5 /// ERCC5 / RFU, ILF3 / Fold change vs veh, ILF3 / RFU 11762660_at / Fold change /veh 11762660_at / RFU VCAN (11757783_s_at) / Fold change /veh VCAN (11757783_s_at) / RFU DDX43 (11728927_at) / Fold change /veh DDX43 (11728927_at) / RFU KRT8 (11758188_x_at) / Fold change /veh KRT8 (11758188_x_at) / RFU NKD1 (11759106_at) / Fold change /veh NKD1 (11759106_at) / RFU SRD5A1 (11742802_a_at) / Fold change /veh SRD5A1 (11742802_a_at) / RFU TPSAB1 /// TPSB2 (11721975_s_at) / Fold change /veh TPSAB1 /// TPSB2 (11721975_s_at) / RFU GSTM3 (11746129_a_at) / Fold change /veh GSTM3 (11746129_a_at) / RFU IL23R (11737362_x_at) / Fold change /veh IL23R (11737362_x_at) / RFU TMEM51 (11727254_a_at) / Fold change /veh TMEM51 (11727254_a_at) / RFU PIWIL2 (11732686_x_at) / Fold change /veh PIWIL2 (11732686_x_at) / RFU ORM1 (11744905_x_at) / Fold change /veh ORM1 (11744905_x_at) / RFU CCDC152 (11743942_at) / Fold change /veh CCDC152 (11743942_at) / RFU ECM1 (11717891_a_at) / Fold change /veh ECM1 (11717891_a_at) / RFU IL23R (11748794_a_at) / Fold change /veh IL23R (11748794_a_at) / RFU TNFAIP8L3 (11732012_x_at) / Fold change /veh TNFAIP8L3 (11732012_x_at) / RFU MBOAT4 (11741988_at) / Fold change /veh MBOAT4 (11741988_at) / RFU 11764193_at / Fold change /veh 11764193_at / RFU TMEM53 (11763286_at) / Fold change /veh TMEM53 (11763286_at) / RFU MAGEB2 (11727129_at) / Fold change /veh MAGEB2 (11727129_at) / RFU TMEM200A (11744735_a_at) / Fold change /veh TMEM200A (11744735_a_at) / RFU CCDC152 (11751479_a_at) / Fold change /veh CCDC152 (11751479_a_at) / RFU FAM211A (11726209_a_at) / Fold change /veh FAM211A (11726209_a_at) / RFU RGS16 (11746705_a_at) / Fold change /veh RGS16 (11746705_a_at) / RFU VCAN (11755009_s_at) / Fold change /veh VCAN (11755009_s_at) / RFU RHOB (11743442_s_at) / Fold change /veh RHOB (11743442_s_at) / RFU RGS16 (11720943_a_at) / Fold change /veh RGS16 (11720943_a_at) / RFU RGS16 (11720944_at) / Fold change /veh RGS16 (11720944_at) / RFU, VPS4B / Fold change vs veh, VPS4B / RFU, CREB1 / Fold change vs veh, CREB1 / RFU, DNAJC13 / Fold change vs veh, DNAJC13 / RFU, GNAQ / Fold change vs veh, GNAQ / RFU, CDK5R1 / Fold change vs veh, CDK5R1 / RFU, ZRANB3 / Fold change vs veh, ZRANB3 / RFU, CUL4A / Fold change vs veh, CUL4A / RFU, CCNY / Fold change vs veh, CCNY / RFU, UFL1 / Fold change vs veh, UFL1 / RFU, COG3 / Fold change vs veh, COG3 / RFU, DIAPH2 / Fold change vs veh, DIAPH2 / RFU, SKA2 / Fold change vs veh, SKA2 / RFU, AFF3 / Fold change vs veh, AFF3 / RFU, LMF1 / Fold change vs veh, LMF1 / RFU, IPO11 / Fold change vs veh, IPO11 / RFU, DFFB / Fold change vs veh, DFFB / RFU, FOXP1 / Fold change vs veh, FOXP1 / RFU, CARD8 / Fold change vs veh, CARD8 / RFU, STRN3 / Fold change vs veh, STRN3 / RFU, ADK / Fold change vs veh, ADK / RFU, RASSF2 / Fold change vs veh, RASSF2 / RFU, WIPF1 / Fold change vs veh, WIPF1 / RFU, LARP1B / Fold change vs veh, LARP1B / RFU, RASA1 / Fold change vs veh, RASA1 / RFU, RB1 / Fold change vs veh, RB1 / RFU, PPFIA1 / Fold change vs veh, PPFIA1 / RFU, MAT2A / Fold change vs veh, MAT2A / RFU, CCT5 / Fold change vs veh, CCT5 / RFU, WDR92 / Fold change vs veh, WDR92 / RFU, CUX1 / Fold change vs veh, CUX1 / RFU, TTC7A / Fold change vs veh, TTC7A / RFU, TMEM135 / Fold change vs veh, TMEM135 / RFU, DEPTOR / Fold change vs veh, DEPTOR / RFU, CPM / Fold change vs veh, CPM / RFU, DNAJB6 / Fold change vs veh, DNAJB6 / RFU, CACNA2D3 / Fold change vs veh, CACNA2D3 / RFU, DTX4 / Fold change vs veh, DTX4 / RFU, TFCP2 / Fold change vs veh, TFCP2 / RFU, GMCL1 /// GMCL1P1 / Fold change vs veh, GMCL1 /// GMCL1P1 / RFU, AEBP2 / Fold change vs veh, AEBP2 / RFU, SNHG1 /// SNORD22 /// SNORD25 /// SNORD26 /// SNORD27 /// SNORD28 /// SNORD29 /// SNORD31 / Fold change vs veh, SNHG1 /// SNORD22 /// SNORD25 /// SNORD26 /// SNORD27 /// SNORD28 /// SNORD29 /// SNORD31 / Fold change (Aza/veh), C12orf56 (ProbeSet 11735607_a_at) / Fold change (ACY-1035/veh), C12orf56 (ProbeSet 11735607_a_at) / Fold change (Aza/veh), FGFR1OP (ProbeSet 11751329_s_at) / Fold change (ACY-1035/veh), FGFR1OP (ProbeSet 11751329_s_at) / Fold change (Aza/veh), VPS36 (ProbeSet 11739960_a_at) / Fold change (ACY-1035/veh), VPS36 (ProbeSet 11739960_a_at) / RFU SYPL1 (11715823_x_at) / Fold change /veh SYPL1 (11715823_x_at) / RFU IGFBP7 (11715501_s_at) / Fold change /veh IGFBP7 (11715501_s_at) / RFU REEP3 (11722064_at) / Fold change /veh REEP3 (11722064_at) / RFU IGLL1 (11728026_x_at) / Fold change /veh IGLL1 (11728026_x_at): dose or concentration left out as unconfirmed
Settings: ProbeSet 11743567_s_at; LIST B

Nc1ncn([C@@H]2O[C@H](CO)[C@@H](O)[C@H]2O)c(=O)n1 [azacitidine]
RFU, ACBD3: 255.44 RFU
